The results in this text go back to patent US11083197B2, “Herbicidal composition comprising chromone derivatives and a method for weed control” (INVESTIGACIONES BIOLÓGICAS EN AGROQUÍMICOS ROSARIO S.A., priority 2015, dated 2021).

One may read the inhibition as the relative decrease from the control value, in per cent.

For one assay, the system named is lettuce (Lactuca sativa). As to the kind of experiment: Germination / dose-response bioassay with lettuce. Format: in vivo. The following applies: 1 mM; 24-well plates; rating scale of 0 to 5. How it is done:
(§1) DCM extract of flowers of A. visnaga (1.6 g) was divided in two 800 mg halves and each one was subjected to column chromatography using an Isolera One system (Biotage), equipped with UV detector (302 and 365 nm) and automatic fraction collector. Separation was performed by normal-phase chromatography column using a SNAP Cartridge KP-Sil (37×157 mm, 50 μm irregular silica, 100 g, Biotage) and a pre-packaged SNAP Samplet Cartridge KP-Sil (37×17 mm, Biotage). A full gradient of hexane:ethyl acetate was used for elution, from 100:0 to 0:100 over 3000 ml. Flow was 40 ml/min and 25 ml fractions were collected. Equal fractions were combined based on similarities on their TLC and chromatogram profiles providing nineteen fractions named I to XIX. All fractions were evaluated for their phytotoxicity on germination bioassay of lettuce (L. sativa) and creeping bentgrass (A. stolonifera).
(§2) A filter paper and 5 lettuce or 10 mg of creeping bentgrass seeds were placed in each well of a 24-well plate. Stock solutions (10×) of test compounds were prepared in acetone. 180 μl of distilled water were added to each well together with 20 μl of stock solution or acetone in solvent control. Final concentration of acetone was 10% v/v. Plates were sealed with Parafilm, and incubated at 26° C. in a growth chamber set at 173 μmol m^−2 s^−1 continuous photosynthetically active radiation. Phytotoxic activity was qualitatively evaluated by visually comparing germination in each well with solvent control at 7 days. A qualitative estimation of phytotoxicity was obtained by using a rating scale of 0 to 5, where 0 was no effect, and 5 was no germination of seeds. This procedure was also used for testing the phytotoxicity of pure compounds on ryegrass. On this experiment 12-well plates were used. 10 seeds were placed per well and final volume was 300 μl in each one. During dose-response bioassays used for IC50 determination, germination percentage and length of plants were measured at 7 days in order to determine the concentration required for 50% germination and growth inhibition (IC50). All experiments were done in triplicate.
Using method described in Example 1, compounds of Formula III and IV above were tested against lettuce and ryegrass.
The percentage of germination and length of plants were determined at 7 days. Data represents means of three replicates±SD. The IC50 values, for both germination and growth inhibition by compounds III and IV on lettuce and ryegrass, were obtained from estimated parameters in the regression curves.
Statistical Analysis. Data from dose-response experiments were analyzed by a log-logistic model^37-38 using the dose-response curve module^39 of R software version 2.2.1.^40 Concentrations required for 50% germination or growth inhibition relative to control (IC50 values) were obtained from estimated parameters in the regression curves. The standard error (SE) of each estimation is provided. Data from phytotoxicity bioassays in the laboratory and greenhouse, ROS and cell death quantifications were analyzed by ANOVA using the InfoStat statistical software version 2015,^41 and Scheffe's test was employed to compare the means at α=0.05.

Assay [1] has as its system creeping bentgrass (A. stolonifera). As to the kind of experiment: Germination bioassay with creeping bentgrass. It counts as in vivo, Agrostis stolonifera. To be noted: 1 mM; 24-well plates; rating scale of 0 to 5. How it is done: as §1, §2
The next assay deals with lettuce. Put plainly: Postemergence bioassay with lettuce in Petri dishes. To be noted: Lactuca sativa, post-emergence, read-out: Average growth inhibition (%) as percentage of control. It counts as in vivo. The method, then:
Compounds of formula III and IV above were tested at different concentrations in a postemergence bioassay (in Petri dishes) against lettuce. Lettuce seeds were pre-incubated in Petri dishes with a filter paper and water for 2 days. After that, seedlings (15 mm approx.) were moved to a new Petri dish containing 4 mL of an aqueous solution of each compound or commercial herbicide. Plants length was measured at day 6 (4 days after postemergence application of the compounds). The results were compared to those obtained with acetochlor and glyphosate.
Plant length's axis starts in 15 mm because seeds were pre-incubated in water, so all seedlings were around 15 mm long at the beginning of the treatment.

In the next assay the test system is ryegrass. As to the kind of experiment: Postemergence bioassay with ryegrass in Petri dishes. It counts as in vivo. To be noted: Lolium multiflorum, post-emergence, day 6 (4 days after application), read-out: Growth inhibition (%) as percentage of control. How it is done:
Plant length was measured at day 6 (4 days after application of the compounds)
Plant length's axis starts in 5 mm because seeds were pre-incubated in water, so all seedlings were around 5 mm long at the beginning of the treatment.

With `Cc1cc(=O)c2c(O)c3ccoc3c(O)c2o1` [4,9-dihydroxy-7-methyl-5H-furo[3,2-g]chromen-5-one], the “Phytotoxicity at day 7, Lettuce” value in the assay on lettuce (Lactuca sativa) is reported as 3. Besides, in assay [1], the “Phytotoxicity at day 7, Creeping bentgrass” value is listed as 1.

Consider `O=C(O)CNCP(=O)(O)O` [Glyphosate, reference compound], for which the results for the inhibition at 750 µM with lettuce and in the assay with ryegrass (750 μM) were 45% and 75%, respectively.

Take `COc1c2occc2c(O)c2c(=O)cc(C)oc12` [4-hydroxy-9-methoxy-7-methyl-5H-furo[3,2-g]chromen-5-one]: the “Phytotoxicity at day 7, Lettuce” value in the assay with lettuce (Lactuca sativa) worked out at 2. Besides, the “Phytotoxicity at day 7, Creeping bentgrass” value in assay [1] is 1.

With `CCOCN(C(=O)CCl)c1c(C)cccc1CC` [Acetochlor, reference compound], the inhibition at 540 µM in the assay on lettuce (0.54 mM, day 6 (4 days after postemergence application)) came to 60%; with ryegrass (540 μM) it was 97%.

For `COc1c2ccoc2cc2oc(COC3OC(CO)C(O)C(O)C3O)cc(=O)c12` (centres unmarked) [Khelloside, Khellol-glucoside], the “Phytotoxicity at day 7, Lettuce” value in the assay with lettuce (Lactuca sativa) stood at 1. For the same compound, the “Phytotoxicity at day 7, Creeping bentgrass” value in assay [1] is reported as 2.

`O=c1ccoc2ccccc12` [Chromone, 1-benzopyran-4-one]: the “Phytotoxicity at day 7, Lettuce” value in the assay with lettuce (Lactuca sativa) is 3. The “Phytotoxicity at day 7, Creeping bentgrass” value in assay [1] is given as 4.

As for `COc1c2occc2c(OC)c2c(=O)cc(C(=O)O)oc12` [4,9-dimethoxy-5-oxo-5H-furo[3,2-g]chromen-7-carboxilic acid], the “Phytotoxicity at day 7, Lettuce” value in the assay on lettuce (Lactuca sativa) is listed as 3. Also, in assay [1], the “Phytotoxicity at day 7, Creeping bentgrass” value is 3.
